In patent US10947575B2, “Rapid antimicrobial susceptibility test, based on an analysis of changes in morphology and growth pattern of a microbial cell under different concentrations of various antimicrobial agents, and automated cell image analysis system therefor” (priority 2014, dated 2021):
Like-named read-outs stand apart in the source and are kept apart here.

How the values were obtained:
P. aeruginosa ATCC 27853 [1] = test: MIC by the proposed method (SCMA), from morphology and growth pattern changes; format: cell-based; conditions: time to result 3 hr
Description: (§1) The bacterial cell in MAC 2.0™ (QuantaMatrix) was monitored through a S Plan Fluor ELWD 60X (NA 1.49) lens of an inverted optical microscope (Eclipse Ti—Nikon, IX71—Olympus) provided in a heating system, and then, an electron multiplying CCD camera (QuantEM:512SC Photometrics for Eclipse Ti) was used to obtain images of a region where is adjacent to an interface between the agarose well of MAC 2.0™ and the antimicrobial agents well, over time. […] In the AST method according to the inventive concept, minimal inhibitory concentration (MIC) was measured using the changes in morphology and growth pattern of the four reference strains (i.e., E. coli ATCC 25922, S. aureus ATCC 29213, P. aeruginosa ATCC 27853, and E. faecalis ATCC 29212) and was compared with MIC quality control (QC) per CLSI guidelines.

E. coli ATCC 25922 [2] = test: as above; format: cell-based; conditions: time to result 3 hr
Description: as §1

P. aeruginosa ATCC 27853 [3] = conditions: time to result 16~20 hr; cited from earlier work
P. aeruginosa ATCC 27853 [4] = test: AST by analysis of changes in morphology and growth pattern of a microbial cell (MAC 2.0 chip imaging); format: cell-based; conditions: Normal / Filament / Swelling
Description: (§2) Four reference strains (E. coli ATCC 25922, S. aureus ATCC 29213, P. aeruginosa ATCC 27853, and E. faecalis ATCC 29212) were used as objective strains, in accordance with Clinical and Laboratory Standards Institute (CLSI) guidelines. […] The bacterial cell in MAC 2.0TM (QuantaMatrix) was monitored through a S Plan Fluor ELWD 60X (NA 1.49) lens of an inverted optical microscope (Eclipse Ti-Nikon, IX71-Olympus) provided in a heating system, and then, an electron multiplying CCD camera (QuantEM:512SC Photometrics for Eclipse Ti) was used to obtain images of a region where is adjacent to an interface between the agarose well of MAC 2.0TM and the antimicrobial agents well, over time.

E. coli ATCC 25922 [5] = test: as above; format: cell-based; conditions: Normal / Filament / Swelling
Description: as §2

E. coli ATCC 25922 [6] = conditions: time to result 16~20 hr; cited from earlier work
S. aureus ATCC 29213 [7] = test: MIC by the proposed method (SCMA), from morphology and growth pattern changes; format: cell-based; conditions: time to result 4 hr
Description: as §1

E. faecalis ATCC 29212 [8] = test: as above; format: cell-based
Description: as §1

E. faecalis ATCC 29212 [9] = conditions: time to result 16~20 hr, cited from earlier work
S. aureus ATCC 29213 [10] = conditions: time to result 16~20 hr; cited from earlier work
S. aureus ATCC 29213 [11] = test: AST by analysis of changes in morphology and growth pattern of a microbial cell (MAC 2.0 chip imaging); format: cell-based; conditions: RRG = relatively rapid growth, RSG = relatively slow growth
Description: as §2

E. faecalis ATCC 29212 [12] = test: as above; format: cell-based; conditions: RRG = relatively rapid growth, RSG = relatively slow growth
Description: as §2

Molecule | CLSI QC range (MIC) (P. aeruginosa ATCC 27853 [3]) | Criteria (change in morphology and growth pattern) (P. aeruginosa ATCC 27853 [4]) | Criteria (change in morphology and growth pattern) (E. coli ATCC 25922 [5]) | CLSI QC range (MIC) (E. coli ATCC 25922 [6]) | SCMA Results (MIC) (E. coli ATCC 25922 [2]; unit assumed) | also measured
NCC[C@H](O)C(=O)N[C@@H]1C[C@H](N)[C@@H](O[C@H]2O[C@H](CN)[C@@H](O)[C@H](O)[C@H]2O)[C@H](O)[C@H]1O[C@H]1O[C@H](CO)[C@@H](O)[C@H](N)[C@H]1O [Amikacin] | 1~4 | Normal | Normal growth | 0.5~4 |  | SCMA Results (MIC) (P. aeruginosa ATCC 27853 [1]): 1~2; SCMA Results (MIC) (E. coli ATCC 25922 [2]): 0.5~1
C[C@H]1[C@H](NC(=O)/C(=N\OC(C)(C)C(=O)O)c2csc(N)n2)C(=O)N1S(=O)(=O)O [Aztreonam] | 2~8 | Filament | Filament | 0.06~0.25 | 0.12 µg/mL | SCMA Results (MIC) (P. aeruginosa ATCC 27853 [1]): 2~4
Cc1nnc(SCC2=C(C(=O)O)N3C(=O)[C@@H](NC(=O)Cn4cnnn4)[C@H]3SC2)s1 [Cefazolin] |  |  | Filament | 1~4 | 2 µg/mL | 
CO/N=C(\C(=O)N[C@@H]1C(=O)N2C(C(=O)[O-])=C(C[N+]3(C)CCCC3)CS[C@H]12)c1csc(N)n1 [Cefepime] | 0.5~4 | Filament | Filament | 0.015~0.12 |  | SCMA Results (MIC) (P. aeruginosa ATCC 27853 [1]): 0.5~2; SCMA Results (MIC) (E. coli ATCC 25922 [2]): 0.03~0.06
CO/N=C(\C(=O)N[C@@H]1C(=O)N2C(C(=O)O)=C(COC(C)=O)CS[C@H]12)c1csc(N)n1 [Cefotaxime] | 8~32 | Filament | Filament |  | 0.06 µg/mL | SCMA Results (MIC) (P. aeruginosa ATCC 27853 [1]; unit assumed): 16 µg/mL
CO[C@@]1(NC(=O)Cc2cccs2)C(=O)N2C(C(=O)O)=C(COC(N)=O)CS[C@@H]21 [Cefoxitin] |  |  | Filament | 2~8 | 2 µg/mL | 
CC(C)(O/N=C(\C(=O)N[C@@H]1C(=O)N2C(C(=O)[O-])=C(C[n+]3ccccc3)CS[C@H]12)c1csc(N)n1)C(=O)O [Ceftazidime] | 1~4 | Filament formation | Filament | 0.06~0.5 | 0.5 µg/mL | SCMA Results (MIC) (P. aeruginosa ATCC 27853 [1]): 2~4
CC[C@H]1OC(=O)[C@H](C)[C@@H](O[C@H]2C[C@@](C)(OC)[C@@H](O)[C@H](C)O2)[C@H](C)[C@@H](O[C@@H]2O[C@H](C)C[C@H](N(C)C)[C@H]2O)[C@](C)(O)C[C@@H](C)C(=O)[C@H](C)[C@@H](O)[C@]1(C)O [Erythromycin] |  |  |  |  |  | SCMA Results (MIC) (S. aureus ATCC 29213 [7]; unit assumed): 0.25 µg/mL; SCMA Results (MIC) (E. faecalis ATCC 29212 [8]; 6 hr): 1 (6 hr); CLSI QC range (MIC) (E. faecalis ATCC 29212 [9]): 1~4; CLSI QC range (MIC) (S. aureus ATCC 29213 [10]): 0.25~1; Criteria (change in morphology and growth pattern) (S. aureus ATCC 29213 [11]): RSG; Criteria (change in morphology and growth pattern) (E. faecalis ATCC 29212 [12]): RSG
C[C@@H](O)[C@H]1C(=O)N2C(C(=O)O)=C(SCCN=CN)C[C@H]12 [Imipenem] |  |  |  |  | 0.12 µg/mL | SCMA Results (MIC) (P. aeruginosa ATCC 27853 [1]; unit assumed): 1 µg/mL; SCMA Results (MIC) (S. aureus ATCC 29213 [7]; unit assumed): 0.03 µg/mL
C[C@H]1COc2c(N3CCN(C)CC3)c(F)cc3c(=O)c(C(=O)O)cn1c23 [Levofloxacin] |  |  |  |  |  | SCMA Results (MIC) (S. aureus ATCC 29213 [7]): 0.12~0.25; SCMA Results (MIC) (E. faecalis ATCC 29212 [8]; time to result 4 hr): 1 µg/mL
CC(=O)NC[C@H]1CN(c2ccc(N3CCOCC3)c(F)c2)C(=O)O1 [Linezolid] |  |  |  |  |  | SCMA Results (MIC) (S. aureus ATCC 29213 [7]): 1~4; SCMA Results (MIC) (E. faecalis ATCC 29212 [8]; time to result 4 hr): 1~2; CLSI QC range (MIC) (E. faecalis ATCC 29212 [9]): 1~4; CLSI QC range (MIC) (S. aureus ATCC 29213 [10]): 1~4; Criteria (change in morphology and growth pattern) (S. aureus ATCC 29213 [11]): RSG; Criteria (change in morphology and growth pattern) (E. faecalis ATCC 29212 [12]): RSG; Criteria (change in morphology and growth pattern) (E. faecalis ATCC 29212 [12]; listed as linezolid): Relatively slow growth (RSG)
C[C@@H](O)[C@H]1C(=O)N2C(C(=O)O)=C(S[C@@H]3CN[C@H](C(=O)N(C)C)C3)[C@H](C)[C@H]12 [Meropenem] | 0.25~1 | Swelling |  |  |  | SCMA Results (MIC) (P. aeruginosa ATCC 27853 [1]; unit assumed): 1 µg/mL
CCn1cc(C(=O)O)c(=O)c2cc(F)c(N3CCNCC3)cc21 [Norfloxacin] |  |  | Normal | 0.03~0.12 |  | SCMA Results (MIC) (E. coli ATCC 25922 [2]): 0.03~0.06; SCMA Results (MIC) (E. faecalis ATCC 29212 [8]; time to result 4 hr): 2~4; CLSI QC range (MIC) (E. faecalis ATCC 29212 [9]): 2~8; Criteria (change in morphology and growth pattern) (E. faecalis ATCC 29212 [12]): RRG
Cc1onc(-c2ccccc2)c1C(=O)N[C@@H]1C(=O)N2[C@@H]1SC(C)(C)[C@@H]2C(=O)O [Oxacillin] |  |  |  |  |  | SCMA Results (MIC) (S. aureus ATCC 29213 [7]; unit assumed): 0.5 µg/mL; CLSI QC range (MIC) (S. aureus ATCC 29213 [10]): 0.12~0.5; Criteria (change in morphology and growth pattern) (S. aureus ATCC 29213 [11]): RRG
CCN1CCN(C(=O)N[C@@H](C(=O)N[C@@H]2C(=O)N3[C@@H]2SC(C)(C)[C@@H]3C(=O)O)c2ccccc2)C(=O)C1=O [Piperacillin] | 1~8 | Filament | Filament formation | 1~4 | 2 µg/mL | SCMA Results (MIC) (P. aeruginosa ATCC 27853 [1]): 4~8
[H]/N=C(/N)N[C@H]1[C@H](O)[C@@H](O)[C@H](O[C@@H]2O[C@@H](C)[C@](O)(C=O)[C@H]2O[C@@H]2O[C@@H](CO)[C@H](O)[C@@H](O)[C@@H]2NC)[C@@H](N/C(N)=N\[H])[C@@H]1O [Streptomycin High Level, Streptomycin] |  |  |  |  |  | SCMA Results (MIC) (E. faecalis ATCC 29212 [8]; time to result 4 hr): ≤ 500 µg/mL; CLSI QC range (MIC) (E. faecalis ATCC 29212 [9]; unit assumed): ≤ 500 µg/mL; Criteria (change in morphology and growth pattern) (E. faecalis ATCC 29212 [12]): Normal
CC1(C)S[C@@H]2[C@H](NC(=O)[C@H](C(=O)O)c3ccsc3)C(=O)N2[C@H]1C(=O)O [Ticarcilin] | 8~32 | Filament |  |  |  | SCMA Results (MIC) (P. aeruginosa ATCC 27853 [1]; unit assumed): 16 µg/mL
NC[C@H]1O[C@H](O[C@H]2[C@H](O)[C@@H](O[C@H]3O[C@H](CO)[C@@H](O)[C@H](N)[C@H]3O)[C@H](N)C[C@@H]2N)[C@H](N)C[C@@H]1O [Tobramycin] | 0.25~1 | Normal |  |  |  | 
Teicoplanin |  |  |  |  |  | SCMA Results (MIC) (E. faecalis ATCC 29212 [8]; time to result 4 hr): 0.5 µg/mL; CLSI QC range (MIC) (E. faecalis ATCC 29212 [9]): 0.25~1; Criteria (change in morphology and growth pattern) (E. faecalis ATCC 29212 [12]): Normal
